This note sets out measurements from ChEMBL document CHEMBL3526147, “Tissue distribution and characterization of drug-related material in rats and dogs after repeated oral administration of casopitant” (Drug Metab Dispos, 2011).

The structures appear in SMILES notation.

The nature of data set [1]: Drug level in skeletal muscle of beagle dog treated with [14C]casopitant mesylate at 40 mg/kg/day, po administered as repeat dose measured after 24 hrs on day 14 by HPLC-MS/MS method relative to [14C]casopitant mesylate radioactivity. More on the design: dosed compound name [14C]Casopitant, route oral. To be noted: in vivo. The format is ADME, organism-based, Canis lupus familiaris, Muscle tissue.

Data set [2] has as its system Plasma. The data set is described as follows: Drug level in plasma of Sprague-Dawley rat treated with [14C]casopitant mesylate at 60 mg/kg/day, po administered as repeat dose measured after 24 hrs on day 20 by HPLC-MS/MS method relative to [14C]casopitant mesylate radioactivity. To be noted: in vivo. The class given is ADME, organism-based. Also noted: dosed compound name [14C]Casopitant, route oral.

A short description of data set [3]: Drug level in myocardium of beagle dog treated with [14C]casopitant mesylate at 40 mg/kg/day, po administered as repeat dose measured after 26 weeks by HPLC-MS/MS method. The format is ADME, organism-based, Canis lupus familiaris. More on the design: dosed compound name [14C]Casopitant, route oral. To be noted: in vivo, 4368 h.
The test system of data set [4] is Plasma. The data set is described as follows: Drug level in plasma of beagle dog treated with [14C]casopitant mesylate at 40 mg/kg/day, po administered as repeat dose measured after 24 hrs on day 14 by HPLC-MS/MS method relative to [14C]casopitant mesylate radioactivity. The class given is ADME, organism-based, Canis lupus familiaris. To be noted: in vivo. Also noted: dosed compound name [14C]Casopitant, route oral.

Data set [5] is described as follows: Drug level in myocardium of beagle dog treated with [14C]casopitant mesylate at 40 mg/kg/day, po administered as repeat dose measured after 13 weeks by HPLC-MS/MS method. The format is ADME, organism-based, Canis lupus familiaris. To be noted: in vivo, 2184 h. Also noted: dosed compound name [14C]Casopitant, route oral.
Data set [6] is described as follows: Drug level in myocardium of beagle dog treated with [14C]casopitant mesylate at 40 mg/kg/day, po administered as repeat dose measured after 22 weeks post dosing withdrawal by HPLC-MS/MS method. The format is ADME, organism-based, Canis lupus familiaris. More on the design: dosed compound name [14C]Casopitant, route oral. To be noted: in vivo, 3696 h.
For data set [7], the system named is Plasma. The data set can be described thus: Drug level in beagle dog plasma treated with [14C]casopitant mesylate at 40 mg/kg/day, po administered as repeat dose measured during 24 hrs dosing interval on week 26 by HPLC-MS/MS method. The class given is ADME, organism-based, Canis lupus familiaris. To be noted: in vivo. More on the design: dosed compound name [14C]Casopitant, route oral.

Data set [8] can be described thus: Drug level in myocardium of beagle dog treated with [14C]casopitant mesylate at 40 mg/kg/day, po administered as repeat dose measured after 6 weeks by HPLC-MS/MS method. Also noted: dosed compound name [14C]Casopitant, route oral. The format is ADME, organism-based, Canis lupus familiaris. To be noted: in vivo, 1008 h.
The subject of data set [9] is Canis familiaris. The data set can be described thus: Tmax in beagle dog treated with [14C]casopitant mesylate at 40 mg/kg/day, po administered as repeat dose measured after 26 weeks by HPLC-MS/MS method. The class given is ADME, organism-based, Canis lupus familiaris. Also noted: dosed compound name [14C]Casopitant, route oral. To be noted: in vivo, 4368 h.
A short description of data set [10]: Drug level in lung of beagle dog treated with [14C]casopitant mesylate at 40 mg/kg/day, po administered as repeat dose measured after 24 hrs on day 14 by HPLC-MS/MS method relative to [14C]casopitant mesylate radioactivity. To be noted: in vivo. The format is ADME, organism-based, Canis lupus familiaris. Also noted: dosed compound name [14C]Casopitant, route oral.

Data set [11] is described as follows: Drug level in myocardium of beagle dog treated with [14C]casopitant mesylate at 40 mg/kg/day, po administered as repeat dose measured after 24 hrs on day 14 by HPLC-MS/MS method relative to [14C]casopitant mesylate radioactivity. The class given is ADME, organism-based, Canis lupus familiaris. Also noted: dosed compound name [14C]Casopitant, route oral. To be noted: in vivo.

Data set [12] can be described thus: Drug level in kidney of beagle dog treated with [14C]casopitant mesylate at 40 mg/kg/day, po administered as repeat dose measured after 24 hrs on day 14 by HPLC-MS/MS method relative to [14C]casopitant mesylate radioactivity. The format is ADME, organism-based, Canis lupus familiaris. More on the design: dosed compound name [14C]Casopitant, route oral. To be noted: in vivo.

Data set [13] relates to Canis familiaris. The data set can be described thus: AUC (0 to t) in beagle dog treated with [14C]casopitant mesylate at 40 mg/kg/day, po administered as repeat dose measured after 26 weeks by HPLC-MS/MS method. The format is ADME, organism-based, Canis lupus familiaris, Plasma. More on the design: dosed compound name [14C]Casopitant, route oral. To be noted: in vivo, 4368 h.

Data set [14] relates to Canis familiaris. The data set can be described thus: Cmax in beagle dog treated with [14C]casopitant mesylate at 40 mg/kg/day, po administered as repeat dose measured after 26 weeks by HPLC-MS/MS method. To be noted: in vivo, 4368 h. More on the design: dose 40 mg/kg/day, dosed compound name [14C]Casopitant, route oral. The class given is ADME, organism-based, Canis lupus familiaris.

Data set [15] in a line: Drug level in myocardium of beagle dog treated with [14C]casopitant mesylate at 40 mg/kg/day, po administered as repeat dose measured after 20 weeks by HPLC-MS/MS method. The class given is ADME, organism-based, Canis lupus familiaris. Also noted: dosed compound name [14C]Casopitant, route oral. To be noted: in vivo, 3360 h.

In the case of `Cc1cc(F)ccc1[C@H]1C[C@@H](N2CCNCC2)CCN1C(=O)N(C)[C@H](C)c1cc(C(F)(F)F)cc(C(F)(F)F)c1`, the Compound recovery in [1] is 7.6%; in data set [2] it was 1.5%; in [3], 11346 ng/g; in [4], 0.8%; in data set [5], 7867 ng/g; in [7], “metabolite_detected”. The Compound recovery is reported as 3623 ng/g in data set [8]; 11.9% in data set [10]; 3.4% in data set [11]; 7% in [12]; 14215 ng/g in data set [15]. Also, the “Drug concentration in myocardium” value in data set [6] is reported as below 50 ng/g. Moreover, the Tmax (usually the time from dosing to the highest level) in [9] worked out at 8 h. In addition, the AUCt in data set [13] was 1803 ng·h/mL. Also, the Cmax (as a rule, the peak of the concentration-time curve) in [14] is 82 ng/mL.

`Cc1cc(F)ccc1[C@H]1C[C@@H](N)CCN1C(=O)N(C)[C@H](C)c1cc(C(F)(F)F)cc(C(F)(F)F)c1`: the Compound recovery is on record as 58640 ng/g in data set [3]; 39073 ng/g in data set [5]; “metabolite_detected” in data set [7]; 29401 ng/g in data set [8]; 52699 ng/g in data set [15]. Further, the “Drug concentration in myocardium” value in data set [6] turned out to be 408 ng/g. For the same compound, the Tmax in [9] is 24 h. In [13], this compound registered an AUCt of 22858 ng·h/mL. Besides, in data set [14], the Cmax was 1044 ng/mL.

Take `Cc1cc(F)ccc1[C@H]1C[C@@H](N2CCNC(=O)C2)CCN1C(=O)N(C)[C@H](C)c1cc(C(F)(F)F)cc(C(F)(F)F)c1`: the Compound recovery in data set [1] is 3.5%; in data set [2], 1.2%; in [3], 2416 ng/g; in [4], 4.1%; in data set [5], 2010 ng/g; in data set [7] it was “metabolite_detected”. The Compound recovery came out at 1517 ng/g in data set [8]; 1.2% in data set [10]; 1.6% in data set [11]; 2.2% in [12]; 3286 ng/g in data set [15]. The “Drug concentration in myocardium” value in data set [6] is listed as below 50 ng/g. In data set [9], the Tmax came out at 8 h. The same compound came in with an AUCt in [13] of 21248 ng·h/mL. In data set [14], this compound showed a Cmax of 1013 ng/mL.
